Measurements as given in publication PMC3602187, “From Design to Screening: A New Antimicrobial Peptide Discovery Pipeline” (PLoS ONE, 2013).
Values after ≈ are worked out from the molar mass of the structure shown. Where a SMILES comes first, the peptide text is derived from it.

How the values were obtained:
Listeria innocua 33090 [1] = experiment: colony overlay assay of peptide-secreting E. coli clones (library screening and re-test); format: cell-based; set-up: key: higher activity group (H); equal activity group (E); lower activity group (L); details: library screening; selected colonies pooled by zone size; peptides identified by 454 sequencing, full-length sequences with minimum 20 reads
In short: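 Pln-423 mutant library expressed periplasmically in leaky E. coli JE5505 (pFLAG-CTS); colonies grown 24 h at 37°C, then overlaid with TSB soft agar containing 1 mM IPTG and L. innocua ATCC 33090 (OD600 = 0.03) and incubated overnight at 30°C. Activity scored by inhibition-zone size versus wild-type Pln-423; hits re-tested after 4 h regrowth.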

Listeria innocua 33090 [2] = experiment: MIC determination / agar spot assay of synthetic peptides; format: cell-based
Description: Synthetic samples of wild-type Pln-423, two variants Pln-S23E and Pln-H28R/H34E from this study (Pln-4 and Pln-7 on Fig. 2), and another high-activity variant Pln-S27D/K36N (discovered during a pilot study, data not shown) were tested on agar plates at varying concentrations.
MICs were determined as previously described, [35]. Synthetic peptides were obtained from Peptide 2.0, Inc. (Chantilly, VA) and dissolved in 0.1% acetic acid/water solution at the final concentration of 2.5 mg/ml. Listeria innocua 33090 was grown in TSB until the turbidity of the culture match that of McFarland standard 0.5 (∼OD600 = 0.11) and diluted to final concentration of 5×10^5 cfu/ml in 20 ml TSB soft agar (1.2%) per plate. Two-fold serial dilutions (starting at 128 µg/ml) for each peptide was carried out in ultra-pure deionized water and 5 µl aliquots of each dilution were spotted on TSB plates. After the plates were incubated for 1 h at room temperature, they were placed at 37°C for overnight incubation. This experiment was performed in triplicate and the MIC was calculated as the lowest peptide concentration that formed a visible growth inhibition zone.

CC(C)C[C@H](NC(=O)[C@H](Cc1c[nH]cn1)NC(=O)[C@H](CO)NC(=O)[C@@H](NC(=O)[C@H](CO)NC(=O)[C@H](CS)NC(=O)[C@H](CCC(=O)O)NC(=O)[C@H](Cc1ccccc1)NC(=O)[C@H](C)NC(=O)[C@H](CCC(N)=O)NC(=O)CNC(=O)[C@H](Cc1c[nH]c2ccccc12)NC(=O)[C@H](CC(N)=O)NC(=O)[C@@H](NC(=O)[C@H](CO)NC(=O)[C@H](CS)NC(=O)[C@H](CO)NC(=O)[C@H](Cc1c[nH]cn1)NC(=O)[C@H](CCCCN)NC(=O)CNC(=O)[C@H](CS)NC(=O)[C@@H](NC(=O)[C@@H](NC(=O)CNC(=O)[C@H](CC(N)=O)NC(=O)CNC(=O)[C@H](Cc1ccc(O)cc1)NC(=O)[C@H](Cc1ccc(O)cc1)NC(=O)[C@@H](N)CCCCN)C(C)C)[C@@H](C)O)C(C)C)C(C)C)C(=O)N[C@@H](C)C(=O)N[C@@H](CC(N)=O)C(=O)N[C@@H](Cc1ccccc1)C(=O)NCC(=O)N[C@@H](Cc1c[nH]cn1)C(=O)NCC(=O)N[C@@H](CCCCN)C(=O)N[C@@H](CS)C(=O)O [PLN-S23E] (H-KYYGNGVTCGKHSCSVNWGQAFECSVSHLANFGHGKC-OH; N-terminus and C-terminus assumed)
activity group by size of inhibition zone compared to wild-type Pln-423 (Listeria innocua 33090 [1]): H and L | MIC (Listeria innocua 33090 [2]; synthetic peptide, 5 µl of two-fold serial dilutions spotted on TSB soft agar (1.2%) with 5×10^5 cfu/ml, 1 h room temperature, then 18 h at 37°C, lowest concentration with visible inhibition zone, triplicate): 1 µM (≈ 3.98 µg/mL) | MIC fold higher compared to Pln-WT (Listeria innocua 33090 [2]; synthetic peptides): 13 fold
